Measured values published in patent US10385403B2, “DDR2 mutations in squamous cell lung cancer” (The Broad Institute, Inc., priority 2012, dated 2019).
“Also recorded” adds a separate entry of the source.

Assays:
[1] = test system: Src and STAT5 phosphorylation in DDR2 L63V-expressing Ba/F3 cells; assay: Immunoblots of phospho-Src and phospho-STAT5; assay type: cell-based; conditions: single agent or with nilotinib, AP24534 or dasatinib; two days
Protocol: Immunoblots: Immunoblots were performed using the Nupage system (Invitrogen) per the manufacturer's protocol. Cells were lysed in 1% NP-40 with protease (Roche) and phosphatase inhibitors (Calbiochem) and protein concentration assayed with the Bradford reagent (Bio-Rad). Primary antibodies used were Flag-M2 (Sigma), phospho-Y417-Src (Cell Signaling Technologies), phospho-Y694-STAT5 (Cell Signaling) and Actin (Santa Cruz). A DDR2 antibody was generated for this project by Bethyl Labs. Secondary HRP-conjugated antibodies were all obtained from Pierce and proteins detected by pico-ECL (Thermo Scientific). Images were imported into Adobe Illustrator using an Epson 4490 scanner. […] In all cases adjustment of brightness or contrast the adjustment was applied uniformly to the image as a whole.

[2] = test system: Ba/F3 cells expressing DDR2 mutants; assay: Four-day proliferation of IL-3-independent Ba/F3 cells; assay type: cell-based; conditions: for Killing / proliferation of Ba/F3 cells expressing DDR2 mutants: single agent
Protocol: (§1) Cell Culture. A549, NCI-H2286, HCC-366 and NCI-H1703 cells were obtained from the core collection at the Dana Farber Cancer Institute, having previously been purchased from the ATCC and used to establish a collection of early passage lung cancer cell lines which were analyzed by fingerprinting and SNP arrays (32). All cells used for the experiments described in this manuscript were obtained from freezes made at that time. Lung cancer cell lines were grown in RPMI (Invitrogen) with 10% fetal calf serum, NIH-3T3 cells were grown in DMEM (Mediatech) with 10% serum and Ba/F3 cells in RPMI supplemented with 10% serum and IL-3 (BD Biosciences) at 10 ng/ml. For IL-3 withdrawal experiments Ba/F3 cells were collected via centrifugation, washed once in sterile PBS and then resuspended in media without IL-3. Colony formation assays in NIH-3T3 cells were performed in six-well plates in which 25,000 NIH-3T3 cells were plated in triplicate in 1 ml of 0.33% top agar on top of 2 ml of 0.5% bottom agar. After three weeks colonies were counted using the NIH ImageJ software.
(§2) Cell Proliferation and Viability Assays. […] Proliferation was measured four days later.

[3] = test system: SCC lines harboring DDR2 mutations (NCI-H2286, HCC-366); assay: Cell proliferation of DDR2-mutant SCC lines (Cell-Titer-Glo); assay type: cell-based
[4] = human, in vivo; cited from earlier work
[5] = test system: NIH-3T3 cells expressing L63V DDR2; assay: Soft agar colony formation; assay type: cell-based; conditions: L63V DDR2, single application at plating
Protocol: as §1

[6] = test system: NCI-H2286 cells (DDR2 I638F)
Description: (§3) Cell Proliferation and Viability Assays. […] Kinase inhibitors were purchased from LC Labs or were synthesized by Nathanael Gray's laboratory at Harvard Medical School.

[7] = test system: HCC-366 cells (DDR2 L239R)
Description: as §3

[8] = test system: HCC-366 cells (DDR2 L239R); conditions: previous report; cited from earlier work
NCI-H1703 xenografts = assay: Xenograft tumor size in nude mice; conditions: 50 mg/kg oral gavage, two weeks
NCI-H2286 xenografts = assay: Xenograft tumor size in nude mice; conditions: 50 mg/kg oral gavage, two weeks
DDR2 mutant cell lines [9] = assay: Cell viability by trypan blue exclusion; assay type: cell-based
Protocol: as §2

DDR2 mutant cell lines [10] = assay: Annexin V analysis 48 hours after addition of drug; assay type: cell-based; conditions: 48 hours after drug
[11] = test system: NCI-H1703 SCC cell line (PDGFRA amplification); conditions: NCI-H1703, positive control line
Protocol: Cell Proliferation and Viability Assays. Cell proliferation was measured with the Cell-Titer-Glo reagent (Promega) per the manufacturer's instructions. For experiments with the SCC cell lines cells were plated in clear-bottomed 96 well plates at a density of 1500 cells per well. The following day the drug was added and cell proliferation was measured six days later for the SCC cell lines. For Ba/F3 cells were plated at 5000 cells per well and the drug added the same day. Proliferation was measured four days later. Proliferation measurements were made using a standard 96 well plate luminometer/plate reader. Data are shown as relative values in which the luminescence at a given drug concentration is compared to untreated cells of the same cell type.
Statistics: For proliferation and colony formation assays mean values from a minimum of triplicate samples are reported as well as standard errors as calculated by Microsoft Excel. IC50 values were obtained using Graph Pad Prism software.

Compound	Src and STAT5 phosphorylation [1]	Proliferation on addition of AZD0530 ([2]; Ba/F3 DDR2 L63V grown in 50 nM nilotinib)	Killing / proliferation of Ba/F3 cells expressing DDR2 mutants ([2]; without IL-3, four days)	Proliferation of SCC lines harboring DDR2 mutations [3]	Effect on proliferation at 50 nM ([2]; 50 nM, wild-type Ba/F3 or Ba/F3 expressing DDR2 mutations)	Toxicity in patients [4]	Colony formation in soft agar [5]	Increase of IC50 with ectopic DDR2 T654M gatekeeper mutation ([6]; NCI-H2286 expressing T654M in cis with I638F) [fold]	IC50 ([6]; read-out: IC50, inhibition of proliferation, NCI-H2286, six days) [nM]	Increase of IC50 with ectopic DDR2 T654M gatekeeper mutation ([7]; HCC-366 expressing T654M in cis with L239R) [fold]	IC50 ([7]; read-out: IC50, inhibition of proliferation, HCC-366, six days) [nM]	Sensitivity rank among 83 NSCLC cell lines [8]	IC50 ([2]; mean over Ba/F3 lines expressing DDR2 mutants, without IL-3, four days, read-out: Mean calculated IC50) [nM]	Tumor size (NCI-H1703 xenografts)	Tumor size (NCI-H2286 xenografts)	Cell death vs cell cycle arrest by trypan blue exclusion (DDR2 mutant cell lines [9])	Cellular annexin V staining (DDR2 mutant cell lines [10])	Sensitivity of proliferation [11]
CN1CCN(CCOc2cc(OC3CCOCC3)c3c(Nc4c(Cl)ccc5c4OCO5)ncnc3c2)CC1 [AZD0530]	reduced Src and STAT5 phosphorylation in a dose-dependent fashion	marked reduction in proliferation	modest effect on the proliferation; also recorded: minimal toxicity															
Cc1cn(-c2cc(NC(=O)c3ccc(C)c(Nc4nccc(-c5cccnc5)n4)c3)cc(C(F)(F)F)c2)cn1 [Nilotinib]			modest activity; also recorded: minimal toxicity	inhibited the proliferation	little effect on proliferation													
N-(2 ? chloro-6-methylphenyl)-2-[[6-[4-(2-hydroxyethyl)-1-piperazinyl]-2-methyl-4 ? pyrimidinyl]amino]-5-thiazolecarboxamide, monohydrate [Dasatinib]						myelosuppression and the development of pleural and pericardial effusions	inhibited	35	139	209	140	most sensitive squamous cell lung cancer line	680	decrease in tumor size	decrease in tumor size	cell death as opposed to cell cycle arrest	increase in cellular annexin V staining	sensitive
